According to paper PMC8869097, “Benzothiazole Derivatives as Multifunctional Antioxidant Agents for Skin Damage: Structure–Activity Relationship of a Scaffold Bearing a Five-Membered Ring System” (Antioxidants, 2022):
Like-named read-outs stand apart in the source and are kept apart here.

What was measured:
In vitro DPPH test = settings: compounds at 1 mg/mL, 30 min, 517 nm
Experimental: The assay performed is adapted from Wang et al.. Briefly, 0.750 mL of 1 mg/mL solutions of the tested compounds was treated with 1.5 mL of DPPH solution in MeOH. The absorbance of samples, stored for 30 min at room temperature in the dark, was read on the spectrophotometer at 517 nm. The values obtained were converted into a radical inhibition percentage (%) by Equation (1). DPPH radical scavenging capacity (%) = [1 − A1/A0] × 100%(1) where A0 and A1 were, respectively, the absorbance without and with the sample. Subsequently, the compound with the best profile was tested in order to determine the IC50 (µg/mL). A linear regression plot is performed to calculate the actual sample concentration required to eliminate 50% of the DPPH free radicals.
The antioxidant activity of a molecule is very important and, if present, it can be synergistic with the SPF described above in reducing the damage that is ROS-induced by UV rays. For this reason, the synthesized compounds were assayed in vitro to assess their antioxidant profiles by means of the DPPH and FRAP assays (Table 2). Regarding the ability to scavenge the stable radical 2,2-diphenyl-1-picrylhydrazyl (DPPH), it was decided to investigate first the compounds synthesized at the same concentration (1 mg/mL) and evaluate the percentage of inhibition of the radical DPPH.

Microsporum canis = test: Antidermatophyte activity, plaque growth inhibition; type: cell-based, Microsporum canis CBS 131,110; settings: read-out: % Inhibition Growth M. canis
Experimental: (§1) The dermatophytes used in this study were Epidermophyton floccosum var. floccosum (Netherlands) CBS 358.93 strain, Trichophyton tonsurans (Netherlands) CBS 483.76 strain, Trichophyton mentagrophytes (Netherlands) CBS 160.66 strain, Microsporum canis (Iran) CBS 131,110 strain, and Microsporum gypseum (Iran) CBS 130,948 strain. All dermatophytes were maintained at 4 °C as agar slants on SDA. Candida albicans (ATCC 10231) was maintained at 4 °C on SDA plate.
(§2) The in vitro antifungal activity against the five selected dermatophytes was evaluated, as previously described, using the plaque growth inhibition method. All compounds were evaluated at the final concentration of 100 µg/mL. The percentages of growth inhibition according to Equation (5) were calculated as the average of three different experiments. I = [(C − T)/C] × 100%,(5) where I is the percentage value of growth inhibition, C is the measure of the diameter of the control circular mycelial inoculum (mm) and T is the extended diameter of the treated mycelial inoculum (mm).
(§3) All synthesized benzothiazole derivatives were evaluated to evaluate their in vitro antifungal activity against the five pathogenic dermatophytes that cause the most common dermatomycoses: Microsporum gypseum, Microsporum canis, Trichophyton mentagrophytes, Trichophyton tonsurans and Epidermophyton floccosum. All compounds were tested at a concentration of 100 µg/mL in DMSO, to evaluate the ability to inhibit the growth of dermatophyte cultures in Sabouraud Dextrose Agar (SDA). Briefly, room temperature incubation was performed and dermatophyte inhibition assessed by measuring the colony diameter at each disc for 7 days. The results are shown in Table 3 and were determined as the average of three different experiments.

[1] = UV spectra of compounds in solution (filtering parameters); type: physicochemical
Experimental: The evaluation of the sun protection parameters has been carried out using a UV-Vis spectrophotometer. The absorbance of the solutions of the test compounds dissolved in the different solvents (DMSO, MeOH, DMSO–H2O 4:6, DMSO–H2O 6:4, HE) at a concentration of 0.0015 (±0.000005)% was recorded in the range 290–400 nm using a 1 cm quartz cell at 1 nm intervals. It was decided to evaluate the profile of the compounds in the Peg-7 Glyceryl Cocoate (HE) oil, which is the emollient of choice to solubilize the compounds in a formulation suitable for in vivo analysis. Wavelength absorbance is in relationship with transmittance (T (λ)) from Equation (2) A (λ) = […](2) where T (λ) is the fraction of incident irradiance that is transmitted through a sample.
The three parameters were determined, respectively, in DMSO and in methanol in order to perform a comparison (Table S1).
Since DMSO is a solvent with characteristics very close to those of an oil, the analysis was also carried out in solutions that mimic the possible conditions of a formulation. For this reason, the 4:6 and 6:4 proportions of DMSO–H2O were chosen to evaluate the choice of an oil-in-water or water-in-oil emulsion.

Microsporum gypseum = test: Antidermatophyte activity, plaque growth inhibition; type: cell-based, Microsporum gypseum CBS 130,948; settings: Nannizzia gypsea, read-out: % Inhibition Growth M. gypseum
Experimental: as §1, §2, §3

[2] = system: Trichophyton mentagrophytes; test: as above; type: cell-based, Trichophyton mentagrophytes CBS 160.66; settings: read-out: % Inhibition Growth T. mentagrophytes
Experimental: as §1, §2, §3

Epidermophyton floccosum = test: Antidermatophyte activity, plaque growth inhibition; type: cell-based, Epidermophyton floccosum var. floccosum CBS 358.93; settings: read-out: % Inhibition Growth E. floccosum
Experimental: as §1, §2, §3

Trichophyton tonsurans = test: as above; type: cell-based, Trichophyton tonsurans CBS 483.76; settings: read-out: % Inhibition Growth T. tonsurans
Experimental: as §1, §2, §3

[3] = Ferric Reducing Antioxidant Power assay (FRAP); settings: 593 nm
Experimental: The FRAP assay is a widely used method based on a colorimetric reaction linked to a redox and on the use of antioxidants as reducing agents.
The test evaluates the capacity of a sample to reduce ferric to ferrous ions in the presence of TPTZ (2,4,6-tripyridyl-s-triazine). The reaction mixture consists of 0.1 M acetate buffer pH 3.6, 10 mmol/L TPTZ in 40 mmol/HCl, and 20 mmol/L ferric chloride in the ratio 10/1/1 (v:v:v) as described by Benzie et al.. A total of 1.9 mL of reagent was added to 0.1 mL of suitably diluted sample or solvent. The absorbance values were measured using the UV-VIS spectrophotometer at 593 nm and expressed as µmol TE/g compound.

[4] = Filtering parameters (in vitro SPF, UVAPF, UVA/UVB, critical wavelength) of W/O formulations on PMMA plates; type: physicochemical
Experimental: The synthesized derivatives were incorporated at increasing concentrations (1%, 2% and 3%) in a topical W/O cosmetic standard formulation, to evaluate the filtering parameters, having the following ingredients composition.
INCI (International Nomenclature Cosmetic Ingredients): aqua, glycerin, Euxyl PE 9010, xanthan gum, ceteareth-12, ceteareth-20, sterearic acid, butylhydroxytoluene, myritol, PEG-7 glyceryl cocoate and 10% sodium solution.
Briefly, the protocol is to finger spread 32.5 mg of each formulation onto 25 cm2 PMMA plates. Each formulation was tested in triplicate by recording five measurements for each dish, after incubation in the dark for 15–30 min at room temperature. UV transmittance data were recorded in the range 290–400 nm using a UV-VIS spectrophotometer.
Blank plate, SPF, UVA-PF and Critical Wavelength were achieved through SPF Calculator Software (version 2.1), Shimadzu, Milan, Italy) as previously reported.
For the determination of the SPF in vitro of the samples in formulation it was decided to use an internal method, developed by us previously and based on the adaptation of the ISO 24443: 2012 [38]. The transmittance spectrum, processed with a specific software (SPF Calculator), made it possible to obtain the SPF, UVAPF, critical lambda and UVA/UVB ratio values of the formulations containing the selected active ingredients (Table 1).

SMILES | DPPH (% Inhibition) (In vitro DPPH test) | inhibition at 100 µg/mL (Microsporum canis; 100 μg/mL, SDA) [%] | A (absorbance) ([1]; DMSO) | ε (molar extinction coefficient) ([1]; DMSO) | λmax ([1]; DMSO) [nm] | A (absorbance) ([1]; MeOH) | ε (molar extinction coefficient) ([1]; MeOH) | λmax ([1]; MeOH) [nm] | inhibition at 100 µg/mL (Microsporum gypseum; 100 μg/mL, SDA) [%] | inhibition at 100 µg/mL ([2]; 100 μg/mL, SDA) [%] | melting point [°C] | inhibition at 100 µg/mL (Epidermophyton floccosum; 100 μg/mL, SDA) [%] | inhibition at 100 µg/mL (Trichophyton tonsurans; 100 μg/mL, SDA) [%] | FRAP [3] | other results
NS(=O)(=O)c1ccc2nc(-c3ccco3)sc2c1 [Compound 9c, 2-(Furan-2-Yl)benzothiazole-6-Sulfonamide] | 64.92 ± 0.91% | 19.5 ± 1.2 | 0.59 | 10332.75 | 329.00 | 0.740 | 13805.97 | 325.30 | 17.82 ± 0.06 | 10.97 ± 0.08 | > 250 | 36.4 ± 1.25 | < 0 | 150.34 ± 11.01 μmolTE/g | –
O=C(O)c1ccc2nc(-c3ccc[nH]3)sc2c1 [Compound 8b, 2-(1H-Pyrrol-2-Yl)benzothiazole-6-Carboxylic Acid] | 5.71 ± 0.37% | < 0 | 0.370 | 5308.47 | 348.87 | 0.190 | 3089.43 | 341.63 | < 0 | < 0 | > 250 | < 0 | 5.45 ± 0.12 | 373.15 ± 1.27 μmolTE/g | –
NS(=O)(=O)c1ccc2nc(-c3ccc[nH]3)sc2c1 [Compound 8c, 2-(1H-Pyrrol-2-Yl)benzothiazole-6-Sulfonamide] | 45.24 ± 2.78% | 23.3 ± 0.86 | 0.700 | 13944.22 | 344.37 | 0.760 | 13263.53 | 341.40 | 23.1 ± 0.48 | 2.36 ± 0.17 | > 250 | 24.7 ± 0.71 | 2.25 ± 0.03 | 119.12 ± 1.49 μmolTE/g | –
O=C(O)c1ccc2nc(-c3cccs3)sc2c1 [Compound 10b, 2-(Thiophen-2-Yl)benzothiazole-6-Carboxylic Acid] | 46.04 ± 0.07% | 27.6 ± 1.47 | 1.160 | 17818.74 | 340.00 | 1.140 | 21268.66 | 334.57 | 18.5 ± 1.23 | 14.2 ± 1.01 | > 250 | 28.3 ± 1.04 | 65.5 ± 1.58 | 133.91 ± 8.13 μmolTE/g | –
O=C(O)/C=C/c1ccc(O)c(O)c1 [Caffeic acid, reference compound] | 80.15 ± 1.24% | – | – | – | – | – | – | – | – | – | – | – | – | 10125.48 ± 32.87 μmolTE/g | –
O=C(O)c1ccc2nc(-c3ccco3)sc2c1 [Compound 9b, 2-(Furan-2-Yl)benzothiazole-6-Carboxylic Acid] | 9.49 ± 0.04% | 14.5 ± 0.83 | 1.36 | 23901.58 | 331.90 | 1.02 | 19318.18 | 327.57 | 18.1 ± 0.97 | < 0 | > 250 | 5.48 ± 0.12 | 29.8 ± 1.23 | 66.07 ± 8.23 μmolTE/g | –
O=S(=O)(O)c1ccc2[nH]c(-c3ccccc3)nc2c1 [PBSA, 2-Phenyl-1H-benzo[d]imidazole-5-sulfonic acid, reference compound] | <LOQ * | – | 1.130 | 23839.66 | 310.50 | 1.460 | 30801.69 | – | – | – | – | – | – | <LOQ * | SPF ([4]; 1% in W/O formulation): 3.22; UVAPF ([4]; 1% in W/O formulation): 0.94; λc ([4]; 1% in W/O formulation): 319 nm; SPF ([4]; 2% in W/O formulation): 4.63; UVAPF ([4]; 2% in W/O formulation): 0.94; λc ([4]; 2% in W/O formulation): 321 nm; SPF ([4]; 3% in W/O formulation): 5.09; UVAPF ([4]; 3% in W/O formulation): 1.02; λc ([4]; 3% in W/O formulation): 324 nm; inhibition at 100 µg/mL (Microsporum canis): < 0%; inhibition at 100 µg/mL (Microsporum gypseum): 9.44 ± 0.35%; inhibition at 100 µg/mL [2]: < 0%; inhibition at 100 µg/mL (Epidermophyton floccosum): 7.28 ± 0.56%; inhibition at 100 µg/mL (Trichophyton tonsurans): < 0%
